In patent US7179812B2, “Diazine derivatives” (Hoffmann-la Roche Inc., priority 2005, dated 2007):

Target: T1, HER2 (Homo sapiens, UniProt P04626)
T1 construct: endogenous in cells; host or cells: Calu3 tumor cell line
Assay: Inhibition of HER2 phosphorylation in Calu3 tumor cell line
Format: cell-based
Conditions: Calu-3; compound concentration 1 μM; Calu3 cells, 16 h incubation; pY 1248 in HER2; percentage of the DMSO treated control; read-out: Percent inhibition of HER2-phosphorylation
Method: Inhibition of HER2 Phosphorylation in Calu3 Tumor Cell Line
2×10^5 Calu3 cells per well were plated in a 12-well plate. After 4 days cells were starved for 16 h in DMEM(Dulbecco's Modified Eagle Medium)/0.5% FCS(Fetal Calf Serum)/1% Glutamine. During this time cells were incubated with 1 μM of the compound. Afterwards cells were lysed in lyses buffer containing 1% Triton, 10% Glycerol, 1 mM EGTA, 1.5 mM MgCl2, 150 mM NaCl, 50 mM Hepes pH 7.5, 1 mM PMSF, 10 μg/mL Aprotinin and […] Orthovanadate. Cell lysates were analyzed on a SDS PAGE and after transfer to a nitrocellulose membrane detected with an antibody specifically recognizing the pY 1248 in HER2. Inhibition of HER2 phosphorylation is calculated as percentage of the DMSO treated control. This percentage is calculated according to the following formula: Inhibition in %=100−(Phosphorylated-HER2-Signal of Test Sample*100/Phosphorylated-HER2-Signal DMSO-control).

T1 sequence (P04626 23-1255): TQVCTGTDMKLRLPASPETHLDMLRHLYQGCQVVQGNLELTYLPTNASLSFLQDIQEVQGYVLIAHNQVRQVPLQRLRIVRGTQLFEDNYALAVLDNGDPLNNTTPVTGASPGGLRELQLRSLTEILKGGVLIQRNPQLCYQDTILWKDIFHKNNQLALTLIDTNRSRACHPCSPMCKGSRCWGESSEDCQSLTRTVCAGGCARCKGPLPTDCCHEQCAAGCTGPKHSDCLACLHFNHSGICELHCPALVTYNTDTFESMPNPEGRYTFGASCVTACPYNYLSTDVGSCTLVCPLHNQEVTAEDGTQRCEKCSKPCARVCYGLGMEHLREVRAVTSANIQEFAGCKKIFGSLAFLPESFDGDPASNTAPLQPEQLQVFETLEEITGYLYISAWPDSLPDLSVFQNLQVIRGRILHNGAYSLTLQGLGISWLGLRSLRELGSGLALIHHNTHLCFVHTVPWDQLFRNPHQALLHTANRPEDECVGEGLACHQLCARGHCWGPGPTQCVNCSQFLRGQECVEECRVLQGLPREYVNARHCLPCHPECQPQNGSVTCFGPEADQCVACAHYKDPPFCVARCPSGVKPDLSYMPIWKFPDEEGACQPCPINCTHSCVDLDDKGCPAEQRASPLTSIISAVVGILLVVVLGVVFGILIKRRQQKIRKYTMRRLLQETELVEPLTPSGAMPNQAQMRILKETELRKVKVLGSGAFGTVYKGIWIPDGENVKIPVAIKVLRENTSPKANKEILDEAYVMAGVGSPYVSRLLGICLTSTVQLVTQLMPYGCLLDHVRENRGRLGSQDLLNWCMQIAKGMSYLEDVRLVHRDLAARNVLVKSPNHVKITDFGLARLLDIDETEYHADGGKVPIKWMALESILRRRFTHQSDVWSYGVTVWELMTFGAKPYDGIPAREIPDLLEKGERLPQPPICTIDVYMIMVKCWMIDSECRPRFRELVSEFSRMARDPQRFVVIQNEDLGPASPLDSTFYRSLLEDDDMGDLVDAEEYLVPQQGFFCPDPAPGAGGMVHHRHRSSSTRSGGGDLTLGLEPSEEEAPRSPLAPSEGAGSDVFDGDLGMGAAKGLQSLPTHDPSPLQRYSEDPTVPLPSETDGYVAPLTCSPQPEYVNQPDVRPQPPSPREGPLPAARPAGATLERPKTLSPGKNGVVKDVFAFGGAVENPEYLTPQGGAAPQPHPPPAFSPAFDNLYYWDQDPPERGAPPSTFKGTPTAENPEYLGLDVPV

inhibition at 1 µM [%]	SMILES
79.8	FC(F)(F)c1ccc(C=Cc2nc(COc3ccc(CCCCn4ccnn4)nn3)co2)cc1 [example 2, 3-(4-[1,2,3]Triazol-1-yl-butyl)-6-{2-[2-(4-trifluoromethyl-phenyl)-vinyl]-oxazol-4-ylmethoxy}-pyridazine]
72.7	FC(F)(F)c1ccc(C=Cc2nc(COc3ncc(CCCCn4ccnn4)cn3)co2)cc1 [example 4, 5-(4-[1,2,3]Triazol-1-yl-butyl)-2-{2-[2-(4-trifluoromethyl-phenyl)-vinyl]-oxazol-4-ylmethoxy}-pyrimidine]
75.3	FC(F)(F)c1ccc(C=Cc2nc(COc3cnc(CCCCn4ccnn4)cn3)co2)cc1 [example 7, 2-(4-[1,2,3]Triazol-1-yl-butyl)-5-{2-[2-(4-trifluoromethyl-phenyl)-vinyl]-oxazol-4-ylmethoxy}-pyrazine]
